According to paper PMC8123576 (International Journal of Molecular Sciences, 2021):

Legend:
[1] = test system: aflatoxin accumulation by A. flavus; experiment: microbe, parasite or virus in culture; assay type: cell-based, Aspergillus flavus
[2] = test system: A. flavus; experiment: microbe, parasite or virus in culture; assay type: cell-based, Aspergillus flavus
[3] = Aspergillus flavus, 100 µM, read-out: G.I. (%) (A. flavus growth inhibition)

## Cu(II) 3,4‐dimethoxybenzaldehyde bis 4,4'‐dimethyl thiosemicarbazonate
[1]; 50 µM
  A.I. (%) (aflatoxin accumulation inhibition): 61,4%
[1]; 100 µM
  A.I. (%) (aflatoxin accumulation inhibition): 84,6%

## Zn(II) Cuminaldehyde bisthiosemicarbazonate
[2]; 50 µM
  G.I. (%) (A. flavus growth inhibition): 56,0%
[2]; 100 µM
  G.I. (%) (A. flavus growth inhibition): 60,3%
[1]; 50 µM
  A.I. (%) (aflatoxin accumulation inhibition): 97,1%
[1]; 100 µM
  A.I. (%) (aflatoxin accumulation inhibition): 100%

## Cu(II) 2,4‐decadienal bisthiosemicarbazonate
[2]; 50 µM
  G.I. (%) (A. flavus growth inhibition): 91,0%
[2]; 100 µM
  G.I. (%) (A. flavus growth inhibition): 80,0%

## CCCCCCCCCCC=NNC(N)=S [Undecanal thiosemicarbazone]
[2]; 50 µM
  G.I. (%) (A. flavus growth inhibition): 78,0%
[2]; 100 µM
  G.I. (%) (A. flavus growth inhibition): 62,0%
[1]; 50 µM
  A.I. (%) (aflatoxin accumulation inhibition): 72,0%
[1]; 100 µM
  A.I. (%) (aflatoxin accumulation inhibition): 93,0%

## Cu(II) benzaldehyde 4,4'‐dimethyl thiosemicarbazonate
[1]; 100 µM
  A.I. (%) (aflatoxin accumulation inhibition): 67,0%

## Cu(II) bisvanillin thiosemicarbazonate
[2]; 100 µM
  G.I. (%) (A. flavus growth inhibition): 65,5%
[1]; 50 µM
  A.I. (%) (aflatoxin accumulation inhibition): 53,0%
[1]; 100 µM
  A.I. (%) (aflatoxin accumulation inhibition): 77,0%

## Cu(II) heptanal bisthiosemicarbazonate
[1]; 50 µM
  A.I. (%) (aflatoxin accumulation inhibition): 62,8%
[1]; 100 µM
  A.I. (%) (aflatoxin accumulation inhibition): 85,5%

## Cu(I) chloroaqua flavone thiosemicarbazone
[2]; 50 µM
  G.I. (%) (A. flavus growth inhibition): 60,0%
[2]; 100 µM
  G.I. (%) (A. flavus growth inhibition): 79,0%

## CC(=NNC(N)=S)c1ccco1 [2-acfurTS, 2-acetylfuranthiosemicarbazone]
[2]; 10 to 100 µM, complexes compared with their ligand
  impact on fungal growth: modest inhibitory activity
[1]
  maximum aflatoxin accumulation inhibition: ≤ 28.7%

## CCCCCCCCC=NNC(N)=S [Nonanal thiosemicarbazone]
[2]; 50 µM
  G.I. (%) (A. flavus growth inhibition): 95,0%
[2]; 100 µM
  G.I. (%) (A. flavus growth inhibition): 100%
[1]; 50 µM
  A.I. (%) (aflatoxin accumulation inhibition): 91,0%
[1]; 100 µM
  A.I. (%) (aflatoxin accumulation inhibition): 100%

## Zn(II) 2‐isopropylbenzaldehyde bisthiosemicarbazonate
[1]; 50 µM
  A.I. (%) (aflatoxin accumulation inhibition): 93,8%
[1]; 100 µM
  A.I. (%) (aflatoxin accumulation inhibition): 100%

## Cu(II) 3‐phenylpropanal bisthiosemicarbazonate
[2]; 50 µM
  G.I. (%) (A. flavus growth inhibition): 69,0%
[2]; 100 µM
  G.I. (%) (A. flavus growth inhibition): 68,0%

## Cu(II) 1‐(3‐methoxyphenyl)heptan‐1‐one bisthiosemicarbazonate
[1]; 50 µM
  A.I. (%) (aflatoxin accumulation inhibition): 82,5%
[1]; 100 µM
  A.I. (%) (aflatoxin accumulation inhibition): 95,2%

## Cu(II) cinnamaldehyde bisthiosemicarbazonate
[2]; 50 µM
  G.I. (%) (A. flavus growth inhibition): 58,0%

## CC12CCC(C(=NNC(N)=S)C1=NNC(N)=S)C2(C)C (stereo not shown) [Camphorquinone bis thiosemicarbazone]
[2]; 100 µM
  G.I. (%) (A. flavus growth inhibition): 58,0%

## Cu(II) 2,3,4‐trimethoxybenzaldehyde bisthiosemicarbazonate
[2]; 50 µM
  G.I. (%) (A. flavus growth inhibition): 55,0%

## CC(=O)c1ccco1 [2-acetyl-furan]
[1]
  activity of parent compounds on aflatoxin biosynthesis: fundamentally inactive

## CC(C)=CCC/C(C)=C/C=N/NC(N)=S [Citral thiosemicarbazone]
[2]; 100 µM
  G.I. (%) (A. flavus growth inhibition): 57,0%

## CN(C)C(=S)NN=CC=Cc1ccccc1.CN(C)C(=S)NN=CC=Cc1ccccc1.[Zn+2] [Zn(II) Cinnamaldehyde bis 4,4‐dimethyl thiosemicarbazonate]
[1]; 50 µM
  A.I. (%) (aflatoxin accumulation inhibition): 75,0%
[1]; 100 µM
  A.I. (%) (aflatoxin accumulation inhibition): 100%

## Dicyclohexanone thiosemicarbazone
[2]; 50 µM
  G.I. (%) (A. flavus growth inhibition): 90,0%
[2]; 100 µM
  G.I. (%) (A. flavus growth inhibition): 99,00%

## Acetylthiophene bisthiosemicarbazone
[2]; 100 µM
  G.I. (%) (A. flavus growth inhibition): 65,0%

## O=C1c2ccccc2C(=O)c2cc(CO)ccc21 [2‐hydroxymethyl‐anthraquinone]
[2]; 100 µM
  G.I. (%) (A. flavus growth inhibition): 62,0%

## NC(=S)NN=c1cc(-c2ccccc2)oc2ccccc12 [Flavone thiosemicarbazone]
[2]; 50 µM
  G.I. (%) (A. flavus growth inhibition): 100%
[2]; 100 µM
  G.I. (%) (A. flavus growth inhibition): 100%

## Zn(II) 1‐isopropylbenzaldehyde bis thiosemicarbazone diacetate
[1]; 50 µM
  A.I. (%) (aflatoxin accumulation inhibition): 69,3%
[1]; 100 µM
  A.I. (%) (aflatoxin accumulation inhibition): 81,9%

## NC(=S)NN=CCCc1ccccc1 [3‐Phenylpropanal thiosemicarbazone]
[2]; 50 µM
  G.I. (%) (A. flavus growth inhibition): 100%
[2]; 100 µM
  G.I. (%) (A. flavus growth inhibition): 107,0%

## CCCCCC=CC=NNC(N)=S [2‐Octenal thiosemicarbazone]
[2]; 50 µM
  G.I. (%) (A. flavus growth inhibition): 93,0%
[2]; 100 µM
  G.I. (%) (A. flavus growth inhibition): 96,0%

## Cc1ccc(S(=O)(=O)OCc2ccc3c(c2)C(=O)c2ccccc2C3=O)cc1 [Tosylate ‐2‐methyleneanthraquinone]
[2]; 50 µM
  G.I. (%) (A. flavus growth inhibition): 66,0%
[2]; 100 µM
  G.I. (%) (A. flavus growth inhibition): 87,0%

## CCCCCC1=C(C)CCC1=NNC(N)=S [Dihydrojasmone thiosemicarbazone]
[1]; 50 µM
  A.I. (%) (aflatoxin accumulation inhibition): 51,5%
[1]; 100 µM
  A.I. (%) (aflatoxin accumulation inhibition): 63,2%

## Zn(II) (E)‐1‐(4‐methoxyphenyl)‐1‐pentene‐3‐one‐bis 3‐thiosemicarbazonate
[2]; 50 µM
  G.I. (%) (A. flavus growth inhibition): 86,0%
[2]; 100 µM
  G.I. (%) (A. flavus growth inhibition): 89,0%

## CCC(/C=C/c1ccc(OC)cc1)=NNC(N)=S [(E)‐1‐(4‐methoxyphenyl)‐1‐pentene‐3‐one‐3‐thiosemicarbazone]
[2]; 50 µM
  G.I. (%) (A. flavus growth inhibition): 62,0%
[2]; 100 µM
  G.I. (%) (A. flavus growth inhibition): 74,0%

## Cu(II) Dihydrojasmone bisthiosemicarbazonate
[1]; 50 µM
  A.I. (%) (aflatoxin accumulation inhibition): 66,0%
[1]; 100 µM
  A.I. (%) (aflatoxin accumulation inhibition): 80,0%

## O=c1cc(-c2ccccc2)oc2ccccc12 [Flavone]
[2]; Aspergillus flavus, 50 µM, read-out: G.I. (%) (A. flavus growth inhibition)
  inhibition at 50 µM: 66%
[2]; [3]
  inhibition at 100 µM: 83%

## Ni(II) perillaldehyde bisthiosemicarbazonate
[1]; 50 µM
  A.I. (%) (aflatoxin accumulation inhibition): 85,2%
[1]; 100 µM
  A.I. (%) (aflatoxin accumulation inhibition): 90,1%

## CCC=CCC1=C(C)CCC1=NNC(N)=S [Jasmone thiosemicarbazone]
[1]; 50 µM
  A.I. (%) (aflatoxin accumulation inhibition): 88,0%
[1]; 100 µM
  A.I. (%) (aflatoxin accumulation inhibition): 90,0%

## CC(C)c1ccccc1C=NNC(N)=S [2‐isopropylbenzaldehyde thiosemicarbazone]
[1]; 50 µM
  A.I. (%) (aflatoxin accumulation inhibition): 67,0%
[1]; 100 µM
  A.I. (%) (aflatoxin accumulation inhibition): 97,0%

## Cu(II) 4,7'‐dihydroxyflavone bisthiosemicarbazonate
[2]; 50 µM
  G.I. (%) (A. flavus growth inhibition): 100%
[2]; 100 µM
  G.I. (%) (A. flavus growth inhibition): 100%

## NC(=S)NN=C(c1ccccc1)c1ccccc1 [Benzophenone thiosemicarbazone]
[2]; [3]
  inhibition at 100 µM: 53%

## NC(=S)NN=C1CCCCC1 [Cyclohexanone thiosemicarbazone]
[2]; 50 µM
  G.I. (%) (A. flavus growth inhibition): 80,0%
[2]; 100 µM
  G.I. (%) (A. flavus growth inhibition): 95,0%

## Zn(II) 1‐isopropylbenzaldehyde bisthiosemicarbazonate
[1]; 50 µM
  A.I. (%) (aflatoxin accumulation inhibition): 55,3%
[1]; 100 µM
  A.I. (%) (aflatoxin accumulation inhibition): 100%

## CC(=O)c1cccs1 [2-acetyl-thiophene]
[1]
  activity of parent compounds on aflatoxin biosynthesis: fundamentally inactive

## Cu(II) Camphorquinone bisthiosemicarbazonate
[1]; 100 µM
  A.I. (%) (aflatoxin accumulation inhibition): 53,0%

## Cu(II) 1‐isopropylbenzaldehyde bisthiosemicarbazonate
[1]; 100 µM
  A.I. (%) (aflatoxin accumulation inhibition): 73,5%

## Cu(II) 2‐isopropylbenzaldehyde bisthiosemicarbazonate
[1]; 50 µM
  A.I. (%) (aflatoxin accumulation inhibition): 65,9%
[1]; 100 µM
  A.I. (%) (aflatoxin accumulation inhibition): 80,8%

## NC(=S)NN=Cc1cccc(O)c1O [2,3‐dihydroxybenzaldehyde thiosemicarbazone]
[2]; 50 µM
  G.I. (%) (A. flavus growth inhibition): 53,0%
